From ChEMBL document CHEMBL1926534, “Efficient synthesis of a novel m-phenylene derivative as a selective EP4 agonist inducing follicular growth and maturation in the ovary” (Bioorg Med Chem Lett, 2011)

Legend:
[1] = Agonist activity at Prostaglandin E2 receptor EP1/EP2 in guinea pig ileum; format: functional, tissue-based; conditions: Cavia porcellus
[2] = biological target: Prostaglandin E2 receptor EP4 subtype (Oryctolagus cuniculus, UniProt Q28691); experiment: Agonist activity at rabbit EP4 receptor assessed as relaxation of Kcl-induced tissue contraction by isometric transducer method; format: functional
[3] = Agonist activity at EP3 receptor in guinea pig uterus assessed as concentration required to reach uterine motility index number 2000; format: functional, Cavia porcellus

Chain of Prostaglandin E2 receptor EP4 subtype (Q28691 whole entry): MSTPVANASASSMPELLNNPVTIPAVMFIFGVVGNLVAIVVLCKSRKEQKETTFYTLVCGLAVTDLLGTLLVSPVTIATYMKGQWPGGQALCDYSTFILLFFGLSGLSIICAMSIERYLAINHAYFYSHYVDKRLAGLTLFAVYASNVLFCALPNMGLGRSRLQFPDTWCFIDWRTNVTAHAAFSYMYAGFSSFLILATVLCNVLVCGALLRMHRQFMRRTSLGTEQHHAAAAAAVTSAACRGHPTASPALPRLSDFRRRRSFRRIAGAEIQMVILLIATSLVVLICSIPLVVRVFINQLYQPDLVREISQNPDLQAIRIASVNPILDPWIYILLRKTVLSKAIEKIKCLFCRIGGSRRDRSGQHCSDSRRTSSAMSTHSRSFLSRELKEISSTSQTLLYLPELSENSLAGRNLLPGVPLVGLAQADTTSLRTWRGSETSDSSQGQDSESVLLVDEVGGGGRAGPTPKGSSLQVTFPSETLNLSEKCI

EC50 [1]	EC50 [2]	SMILES	EC [3]
3400 nM	2.6 nM	O[C@H](/C=C/[C@@H]1[C@H]2c3cccc(CCc4nnn[nH]4)c3O[C@H]2C[C@H]1O)CC1CCCCC1	2800 nM
150 nM	5.7 nM	O=C(O)CCc1cccc2c1O[C@H]1C[C@@H](O)[C@H](/C=C/[C@@H](O)CC3CCCCC3)[C@@H]21	540 nM
